Holding throughout (assay type): functional
The subject of one test is KM-20L2. Kind of test: Growth inhibition of human KM20L2 cells.
The subject of the next test is DU-145. The experiment in a line: Growth inhibition of human DU145 cells.
Another test relates to MCF7. The experiment in a line: Growth inhibition of human MCF7 cells.
In the next test the test system is SF-268. Kind of test: Growth inhibition of human SF268 cells.
For the next test, the system named is BXPC-3. The experiment in a line: Growth inhibition of human BXPC3 cells.
For the next test, the system named is NCI-H460. The experiment in a line: Growth inhibition of human NCI-H460 cells.
A further test deals with P388. Kind of test: Growth inhibition of mouse P388 cells.

Values after ≈ are worked out from the molar mass of the structure shown. Bounds are passed on as bounds.

As usually defined, the GI50 is the concentration giving 50% growth inhibition. A higher GI50 goes with less potent growth inhibition. With `COc1c(C)c(=O)c2oc3cccc(O)c3ccc=2c1=O` [BAUHINIASTATIN 1], the GI50 in the test on KM-20L2 was over 10 µg/mL; in the test with DU-145, over 10 µg/mL; with MCF7, 4.1 µg/mL (≈ 14.4 µM); with SF-268 it was 2.4 µg/mL (≈ 8.44 µM); in the test with BXPC-3, 7 µg/mL (≈ 24.6 µM); with NCI-H460 it was 6.6 µg/mL (≈ 23.2 µM). Further, halving of growth in the test on P388 (GI50) required 0.65 µg/mL (≈ 2.29 µM).
`COc1c(C)c(O)c2c(c1OC)C=Cc1c(O)cccc1O2` [BAUHINIASTATIN 2]: the concentration for 50% growth inhibition (GI50) was over 10 µg/mL in the test on KM-20L2; 3.8 µg/mL (≈ 12.7 µM) in the test with DU-145; 3.1 µg/mL (≈ 10.3 µM) in the test with MCF7; 3.2 µg/mL (≈ 10.7 µM) with SF-268; 3.8 µg/mL (≈ 12.7 µM) in the test on BXPC-3; 3.5 µg/mL (≈ 11.7 µM) in the test with NCI-H460. Further, growth with P388 was halved (GI50) at 23.2 µg/mL (≈ 77.3 µM).
As to `COc1cc2c(c(O)c1C)Oc1c(O)ccc(OC)c1C=C2` [BAUHINIASTATIN 3], the GI50 with KM-20L2 is over 10 µg/mL; in the test on DU-145, 5.8 µg/mL (≈ 19.3 µM); with MCF7, 3.2 µg/mL (≈ 10.7 µM); in the test on SF-268, 5.8 µg/mL (≈ 19.3 µM); in the test with BXPC-3 it was 6.6 µg/mL (≈ 22 µM); with NCI-H460, 6.1 µg/mL (≈ 20.3 µM). In addition, in the test with P388, the GI50 was 15.7 µg/mL (≈ 52.3 µM).
In the test on P388, `COc1c(C)c(O)cc2c1Oc1cccc(O)c1C=C2` [BAUHINIASTATIN 4] yielded a 50% growth inhibitory concentration (GI50) of 61.5 µg/mL (≈ 228 µM).
The same measure, in the same setting: the value for `O=c1[nH]cc(F)c(=O)[nH]1` [FLUOROURACIL] was 0.073 µg/mL (≈ 0.561 µM).
`COc1cc2c(c(O)c1C)Oc1cccc(O)c1C=C2` [PACHARIN]: the concentration for 50% growth inhibition (GI50) in the test on KM-20L2 is over 10 µg/mL; in the test with DU-145 it was 3.3 µg/mL (≈ 12.2 µM); in the test on MCF7 it was 2.3 µg/mL (≈ 8.51 µM); with SF-268, 3.1 µg/mL (≈ 11.5 µM); with BXPC-3, 4.3 µg/mL (≈ 15.9 µM); in the test on NCI-H460, 4.2 µg/mL (≈ 15.5 µM). The same compound yielded a concentration for 50% growth inhibition (GI50) with P388 of 15.5 µg/mL (≈ 57.3 µM).

The values are drawn from ChEMBL document CHEMBL1157269, “Antineoplastic agents. 551. Isolation and structures of bauhiniastatins 1-4 from Bauhinia purpurea” (2006).
